Results from patent publication US9320272B2, “Microbial composition” (Rohm and Haas Company, priority 2011, dated 2016).
Values joined by “and” are separate entries in the source; they are usually repeats but may differ in a detail not shown here. Identical values can stand only once.

What was measured:
[1] = test system: Escherichia coli (E. coli - ATCC #10536); experiment: Synergy test: high resolution MBC microtiter plate assay in phosphate buffer containing 35% dipropylene glycol, 15 seconds contact; format: cell-based; details: for SI (Synergy Index = Qa/QA + Qb/QB): E. coli 10536, less than one = synergy, one = additivity, greater than one = antagonism
Description: One measure of synergy is the industrially accepted method described by Kull, F. C.; Eisman, P. C.; Sylwestrowicz, M. D, and Mayer, R. L., in Applied Microbiology 9:538-541 (1961), using the ratio determined by the formula: Qa/QA+Qb/QB=Synergy Index (“SI”) wherein; QA=concentration of compound A (first component) in percent, acting alone, which produced an end point (MBC of Compound A), Qa=concentration of compound A in percent, in the mixture, which produced an end point. QB=concentration of compound B (second component) in percent, acting alone, which produced an end point (MBC of Compound B). Qb=concentration of compound B in percent, in the mixture, which produced an end point.
When the sum of Qa/QA and Qb/QB is greater than one, antagonism is indicated. […] The lower the SI, the greater is the synergy shown by that particular mixture. The minimum biocidal concentration (MBC) of a microbicide is the lowest concentration tested under a specific set of conditions that provides complete kill of the tested microorganisms.
Synergy tests were conducted using standard microliter plate assays with phosphate buffer containing 35% dipropylene glycol (DPG). In this method, a wide range of combinations of chemicals was tested by conducting high resolution. MBC assays of Component (A) in the presence of various concentrations of Component (B). High resolution MBCs were determined by adding varying amounts of microbicide to one column of a microliter plate and doing subsequent […] dilutions using an automated liquid handling system to obtain a series of closely spaced endpoints. The MBC plate was inoculated one column at a time with the test microorganism. An aliquot of the inoculated well was transferred at 15 seconds to a plate containing a neutralizing agent (EVE Neutralizing Broth), mixed and held for 5 minutes before being transferred to a growth plate containing trypticase soy broth (TSB). The TSB plate was incubated at 37° C. and read for the presence/absence of growth at 24 hours. The lowest level tested that provided complete kill (as evidenced by no growth in the microtitre plate) of the test organisms in 15 seconds is the minimum biocidal concentration (MBC).
The synergy of the combinations of the present invention was determined against a bacterium, Escherichia coli (E. coli—ATCC #10536), at a concentration of approximately 1×10^8 bacteria per mL. This microorganism is representative of natural contaminants in many consumer and industrial applications.

[2] = test system: Escherichia coli (E. coli - ATCC #10536); experiment: Automated assessment of efficacy in surfactant base (2.85% sodium cocoyl glycinate + 1.85% sodium lauroamphoacetate, pH 10), 15 seconds exposure; format: cell-based; details: for MBC (% w/v): in 2.85% sodium cocoyl glycinate + 1.85% sodium lauroamphoacetate solution at pH 10, E. coli, 15 seconds exposure; for Δ OD 450 nm = OD450 (time zero) − OD450 (time = 16 hours), Mean / Δ OD 590 nm OD590 (time = 16 hours) − OD590 (time zero), Mean / No. of replicates showing growth (out of 4): model surfactant solution pH 10, 15 s exposure; for Δ OD 450 nm = OD450 (time zero) − OD450 (time = 16 hours), Mean / Δ OD 590 nm OD590 (time = 16 hours) − OD590 (time zero), Mean: 4 replicates
Experimental: In these examples, the efficacy of combinations of actives were tested in a surfactant cleansing formulation comprising 2.85% sodium cocoyl glycinate and 1.85% sodium lauroamphoacetate.
This corresponds to a 50% in use dilution with water of a neat formulation containing 5.7% cocoyl glycinate and 3.7% sodium lauroamphoacetate during hand washing.
Solutions were prepared such that the concentrations of the surfactant components and test actives were 1.1× the final desired concentration in order to allow for dilution with the bacterial inoculum in the test. The solutions were manually adjusted to pH 10.0 by dropwise addition of sodium hydroxide solution, as measured with a pH meter at ambient temperature.
The efficacy of the combinations of the present invention was determined against Escherichia coli (E. coli—ATCC #10536), at a concentration of approximately 1×10^8 bacteria per mL.
Tests were conducted using standard microliter plate assays using an automated liquid handling system. 270 μl of the surfactant test solution was pipetted into each well of the microtitre plate and 30 μl of the bacterial suspension was then added. After exactly 15 seconds of bacterial exposure, a 30 μl volume of bacterial cells was withdrawn and transferred to 270 μl of D/E quench solution. After 5 minutes in the D/E quench, the optical density (OD) was measured for each plate in turn at two specific wavelengths (450 nm and 590 nm). These provide a dual check of antimicrobial activity, as the OD450 reading is specific for the yellow colour of D/E quench when bacterial growth is observed, whereas OD590 is specific for the initial purple colour of the D/E quench which is retained if no bacterial growth is observed. After the time zero OD measurements, plates were then incubated at 37° C. overnight (16 hours) before repeating the OD measurements. Delta CD values were calculated by subtracting […] the initial value at time zero. Bacterial growth is observed as an increase in OD450 and a decrease in ΔOD590. To identify antibacterially efficacious systems (those preventing appreciable bacterial growth after incubation), the following threshold changes in OD readings have been adopted: if (1), OD450 increases by less than 0.2 absorbance unit on incubation and (2), OD590 decreases by less than 0.35 unit on incubation. Conversely, where OD450 increases by more than 0.2 AU and OD590 decreases by more than 0.35 unit after incubation, corresponding to a colour shift from purple to yellow, the test system allows bacterial growth and is not deemed efficacious. Four replicate measurements in the same plate have been made for each test system. The number of replicate wells showing either bacterial growth or no growth is also readily assessed by eye by following the colour change.
Dose responses for individual components and binary mixtures of actives at a fixed concentration ratio were generated by sequential dilution of liquors with further surfactant solution to obtain a series of endpoints.
In some selected cases, the combinations were also tested at the weight ratio 1.1.

[3] = E. coli 10536, complete kill in 15 seconds, phosphate buffer with 35% DPG

`CC(C)=CCC/C(C)=C\CO` [cis-3,7-dimethyl-2,6-octadien-1-ol] was tested, and the “QB: concentration of second component (B) acting alone which produced an end point (MBC of Compound B); Qb with Qa = 0” value [1, 3] was 0.5 weight % and 0.25 weight %, the “MBC (% w/v)” value [2] was over 0.5 % w/v and the “Δ OD 450 nm = OD450 (time zero) − OD450 (time = 16 hours), Mean” value (from here on “Δ OD 450 nm = OD450 (time zero) − OD450”) ([2]; single active at 0.2% w/v) was −0.53. The “Δ OD 590 nm OD590 (time = 16 hours) − OD590 (time zero), Mean” value (“Δ OD 590 nm OD590” below) ([2]; single active at 0.2% w/v) was 0.60, the “Δ OD 450 nm = OD450 (time zero) − OD450” value ([2]; single active at 0.5% w/v) was −0.14 and the “Δ OD 590 nm OD590” value ([2]; single active at 0.5% w/v) was 0.40. The “No. of replicates showing growth (out of 4)” value ([2]; single active at […] w/v) was 4 and the “Δ OD 590 nm OD590” value ([2]; single active at […] w/v) was 0.61.

With `Oc1ccc2c(c1)CCCC2` [5,6,7,8-tetrahydronaphthalen-2-ol] the “QA: concentration of first component (A) acting alone which produced an end point (MBC of Compound A); Qa with Qb = 0” value (“QA: concentration of first component” below) [1, 3] was 0.6 weight % and 0.3 weight % and 0.5 weight %, the “SI (Synergy Index = Qa/QA + Qb/QB)” value [1] was 1.00 and the “MBC (% w/v)” value [2] was over 0.2 % w/v. For the same molecule, the “No. of replicates showing growth (out of 4)” value ([2]; single active at […] w/v) was 4, the “Δ OD 450 nm = OD450 (time zero) − OD450” value ([2]; single active at […] w/v) was −1.59 and the “Δ OD 590 nm OD590” value ([2]; single active at […] w/v) was 0.30.

With `Cc1cc(O)c(C(C)C)cc1Cl` [4-chloro-2-isopropyl-5-methylphenol, reference compound] the “MBC (% w/v)” value [2] was over 0.2 % w/v.

`Oc1cccc2c1CCCC2` [5,6,7,8-tetrahydronaphthalen-1-ol] was tested, and the “QA: concentration of first component” value [1, 3] was 0.6 weight % and 0.5 weight %, the “SI (Synergy Index = Qa/QA + Qb/QB)” value [1] was 1.00 and the “MBC (% w/v)” value [2] was over 0.2 % w/v.

In the case of `CC(C)(C)c1ccc(O)c(O)c1` [4-tert-butylbenzene-1,2-diol], the “QA: concentration of first component” value [1, 3] is reported as 0.8 weight % and 1.0 weight % and the “SI (Synergy Index = Qa/QA + Qb/QB)” value [1] is reported as 1.00.

In the case of `Cc1cc(O)cc(C)c1Cl` [4-chloro-3,5-dimethylphenol], the “QA: concentration of first component” value [1, 3] is reported as 0.6 weight % and 0.3 weight %, the “SI (Synergy Index = Qa/QA + Qb/QB)” value [1] is reported as 1.00 and the “MBC (% w/v)” value [2] is reported as over 0.2 % w/v.

`Cc1ccc(C(C)C)c(O)c1O` [3-isopropyl-6-methylbenzene-1,2-diol] was tested, and the “QA: concentration of first component” value [1, 3] was 0.8 weight % and 1.0 weight % and the “SI (Synergy Index = Qa/QA + Qb/QB)” value [1] was 1.00.
